Results reported in US7531558B2, “Carboxamide derivatives” (Glaxo Group Limited, priority 2003, dated 2009).

Test system: FCA-induced mechanical hyperalgesia
Experiment: FCA-induced hyperalgesia in the guinea pig (paw pressure, Randall-Sellito)
Type: in vivo
Conditions: male Dunkin Hartley guinea-pigs; oral 3, 10, 30 mg/kg 24 h after intraplantar FCA; reading 1 hour after drug administration
Method: 100 μl of 1 mg/ml FCA was injected intraplantar into the left paw of 4 groups of 8 male Dunkin Hartley guinea-pigs (batch: 6282434, average weight 340 g). 24 hours later compounds were administered orally at 0 (vehicle), 3, 10 30 mg/kg with vehicle as 1% methylcellulose and dosing volume being 2 ml/kg and dosing straight into the stomach. The methylcellulose was added gradually to the compound into the pestle and mortar and ground together.
Behavioural readouts of mechanical hyperalgesia were obtained before FCA administration (naïve reading), after FCA but before drug administration (predose reading) and 1 hour after drug administration. The readout used was paw pressure (Randall-Sellito) and the end point was paw withdrawal. The paw pressure equipment also had one silver disc placed on the point to increase the markings by a factor of 2.

| SMILES | activity in FCA-induced mechanical hyperalgesia (paw withdrawal) |
| --- | --- |
| Cc1nc(-c2ccc(F)cc2)ccc1C(=O)Nc1ccc2scnc2c1 [Example 4, N-Benzothiazol-5-yl-6-(4-fluorophenyl)-2-methyl-nicotinamide] | active |
| Cc1nc2cc(NC(=O)c3ccc(-c4cccc(F)c4F)nc3C)ccc2s1 [Example 5, 6-(2,3-Difluorophenyl)-2-methyl-N-(2-methylbenzothiazol-5-yl)-nicotinamide] | active |
| Cc1nc2cc(NC(=O)N3CCN(c4ccccc4F)CC3)ccc2s1 [Example 16, 4-(2-Fluorophenyl)-N-(2-methylbenzothiazol-5-yl)-1-piperazine carboxamide] | active |
| Cc1nc2cc(NC(=O)c3ccc(-c4ccc(F)cc4)nc3C)ccc2s1 [Example 1, 6-(4-Fluorophenyl)-2-methyl-N-(2-methylbenzothiazol-5-yl)nicotinamide] | active |
| Cc1nc2cc(NC(=O)c3ccc(-c4ccc(F)cc4F)nc3C)ccc2s1 [Example 2, 6-(2,4-Difluorophenyl)-2-methyl-N-(2-methylbenzothiazol-5-yl)-nicotinamide] | active |
| Cc1nc2cc(NC(=O)c3ccc(-c4ccc(F)c(F)c4)nc3C)ccc2s1 [Example 3, 6-(3,4-Difluorophenyl)-2-methyl-N-(2-methylbenzothiazol-5-yl)-nicotinamide] | active |
